Bounds are passed on as bounds.

One may read the melting point as the temperature of the solid-liquid transition. As for `O=C1Nc2ccc(Br)cc2C1=NO` [Compound 1a, 5-Bromoisatin 3-oxime], the melting point was 250 to 251 °C. `CN1C(=O)C(=NO)c2cc(Cl)c(Cl)cc21` [Compound 1b, 5,6-dichloro-1-methylisatin 3-oxime] came in with a melting point of 232 to 236 °C. In the case of `CN1C(=O)C(=NO)c2c1ccc(Cl)c2Cl` [Compound 1d, 4,5-dichloro-1-methylisatin 3-oxime], the melting point lay in the range of 140 to 142 °C. `CN1C(=O)C(=NO)c2ccc(Cl)c(Cl)c21` [Compound 1j, 6,7-Dichloro-1-methylisatin 3-oxime]: the melting point is greater than 200 °C.

Regarding `O=C1Nc2c(ccc(F)c2F)C1=NO` [Compound 1o, 6,7-Difluoroisatin 3-oxime], the melting point lay within 263 to 264 °C. In the case of `Cc1ccc2c(c1C)NC(=O)C2=NO` [Compound 1p, 6,7-Dimethylisatin 3-oxime], the melting point fell in the range of 283 to 284 °C.

The compound `O=C1Nc2cc(Cl)c(Cl)cc2C1=NO` [Compound 1q, 5,6-Dichloroisatin 3-oxime] gave a melting point of 274 to 275 °C.

Consider `Cc1c(Cl)ccc2c1NC(=O)C2=NO` [Compound 1u, 6-Chloro-7-methylisatin 3-oxime], for which the melting point is greater than 300 °C. Consider `Cc1c(F)ccc2c1NC(=O)C2=NO` [Compound 1v, 6-Fluoro-7-methylisatin 3-oxime], for which the melting point was 286 °C (dec.). Compound `COc1c(F)ccc2c1NC(=O)C2=NO` [Compound 1w, 6-Fluoro-7-methoxyisatin 3-oxime] registered a melting point of 268 to 270 °C.

These data come from patent US6969729B2, “Use of isatin derivatives as ion channel activating agents” (Neurosearch A/S, priority 1998, dated 2005).
